Source: PMC10895674, “First-in-Class Dual EZH2-HSP90 Inhibitor Eliciting Striking Antiglioblastoma Activity In Vitro and In Vivo” (Journal of Medicinal Chemistry, 2024)

Assays:
Type in all cases: cell-based, human
Pt3R cells [1] = assay: Itraq-based proteomics analysis of global protein expression; conditions: 2 μM
From the text: Having identified the desired chemical probe 7, we assessed global protein expression using Itraq-based proteomics analysis to estimate whether 7 suppresses HSP90 (Pt3R cell lines). […] This observation is aligned with the results attained with geldanamycin treatment (a well-known HSP90 inhibitor)[49],[50] and confirms the HSP90-suppressive activity of compound 7 in GBM cells.
(§1) RNA was isolated using the RNA extracting kit (Zymo Research, Irvine, CA) and subjected to RNA-seq serviced by BIOTOOLS Co., Ltd. (New Taipei City, Taiwan). Cell pellets were collected and subjected to proteomic analysis serviced by BIOTOOLS Co., Ltd. The comparison in gene expression between Pt3 and Pt3R was performed using RNA seq and described previously.[60]

Pt3 cells = assay: ROS assay (DHR, flow cytometry); conditions: 48 h
Experimental: (§2) Figure 10 Compound 7 triggers ROS production from mitochondria. (A) After treatment for 48 h, cells were stained with the DHR reagent, and the fluorescent signal was estimated by flow cytometry. Treatment concentration of compound 7 was indicated. (B) Protein lysates were subjected to Western blotting using the indicated antibody. (C) After staining with MitoSOX (red) and Hoechst 33342 (blue), cellular signals were photographed and quantified D. Protein lysates were subjected to Western blotting using the indicated antibody.
(§3) Dihydrorhodamine 123 (DHR; Thermo Fisher Scientific, Waltham, MA) was used to label cellular ROS detected by the flow cytometry,[54] and the MitoSOX reagent (Thermo Fisher Scientific) was used to label mitochondrial ROS.[55]

Pt3R cells [2] = assay: ROS assay (DHR, flow cytometry); conditions: 48 h
Experimental: as §2, §3

Pt3R cells [3] = assay: Cell cycle analysis (PI staining, flow cytometry); conditions: 24 h treatment (Figure 8E)
Experimental: Figure 8 Compound 7 suppresses gene expression of CENP family. (A) Compound 7-suppressed CENP family. (B) Gene expression of CENP family in Pt3 and TMZ-resistant Pt3R cells. (C) Prognostic value was analyzed using the GlioVis Web site. (D) Western blotting was used to confirm that compound 7 decreased CENPs expression. (E) Cell cycle analysis. After treatment for 24 h, cells were stained with propidium iodide (PI) and subjected to flow cytometry analysis.

TMZ-resistant Pt3R cells = assay: RNA-seq gene expression profile (and cell morphology) after 48 h
Experimental: To gain insights regarding the ability of dual inhibitor 7 to suppress the viability of TMZ-resistant GBM cells, RNA-seq to analyze gene expression profiles was performed.
Figure 7 Effect of compound 7 on gene expression profile in TMZ-resistant Pt3R cells. […] (B) GSEA functionally grouped genes. (C) Genes involved in apoptosis/necrosis and M phase/Kinetochore/Spindle were clustered in the heatmap.
as §1

CCN(c1cc(-c2cccc(N(C)C(=O)c3cc(C(C)C)c(O)cc3O)c2)cc(C(=O)NCc2c(C)cc(C)[nH]c2=O)c1C)C1CCOCC1 [Compound 7, 3′-(2,4-Dihydroxy-5-isopropyl-N-methylbenzamido)-N-((4,6-dimethyl-2-oxo-1,2-dihydropyridin-3-yl)methyl)-5-(ethyl(tetrahydro-2H-pyran-4-yl)amino)-4-methyl-[1,1′-biphenyl]-3-carboxamide]
C7/DMSO, ANXA5 (P08758) (Pt3R cells [1]; protein decreased): 0.406 | C7/DMSO, CORO1C (Q9ULV4) (Pt3R cells [1]; protein decreased): 0.410 | C7/DMSO, CYB5B (O43169) (Pt3R cells [1]; protein decreased): 0.568 | C7/DMSO, DDX6 (P26196) (Pt3R cells [1]; protein decreased): 0.596 | C7/DMSO, DDX39A (O00148) (Pt3R cells [1]; protein decreased): 0.515 | C7/DMSO, EIF3I (Q13347) (Pt3R cells [1]; protein decreased): 0.624 | C7/DMSO, GNB2 (P62879) (Pt3R cells [1]; protein decreased): 0.628 | C7/DMSO, H1–2 (P16403) (Pt3R cells [1]; protein decreased): 0.334 | C7/DMSO, H2AZ1 (P0C0S5) (Pt3R cells [1]; protein decreased): 0.603 | C7/DMSO, H2BC11 (P06899) (Pt3R cells [1]; protein decreased): 0.423 | C7/DMSO, H2BC12 (O60814) (Pt3R cells [1]; protein decreased): 0.419 | C7/DMSO, H4C1 (P62805) (Pt3R cells [1]; protein decreased): 0.556 | C7/DMSO, HADHB (P55084) (Pt3R cells [1]; protein decreased): 0.591 | C7/DMSO, HIST1H2AH (Q96KK5) (Pt3R cells [1]; protein decreased): 0.245 | C7/DMSO, HIST2H3A (Q71DI3) (Pt3R cells [1]; protein decreased): 0.240 | C7/DMSO, HMGB2 (P26583) (Pt3R cells [1]; protein decreased): 0.575 | C7/DMSO, HMGB3 (O15347) (Pt3R cells [1]; protein decreased): 0.573 | C7/DMSO, HNRNPA3 (P51991) (Pt3R cells [1]; protein decreased): 0.377 | C7/DMSO, ILF3 (Q12906) (Pt3R cells [1]; protein decreased): 0.645 | C7/DMSO, MCM3 (P25205) (Pt3R cells [1]; protein decreased): 0.635 | C7/DMSO, MCM7 (P33993) (Pt3R cells [1]; protein decreased): 0.586 | C7/DMSO, NASP (P49321) (Pt3R cells [1]; protein decreased): 0.604 | C7/DMSO, NT5E (P21589) (Pt3R cells [1]; protein decreased): 0.446 | C7/DMSO, PA2G4 (Q9UQ80) (Pt3R cells [1]; protein decreased): 0.628 | C7/DMSO, PCBP1 (Q15365) (Pt3R cells [1]; protein decreased): 0.628 | C7/DMSO, PTGES3 (Q15185) (Pt3R cells [1]; protein decreased): 0.589 | C7/DMSO, RACK1 (P63244) (Pt3R cells [1]; protein decreased): 0.627 | C7/DMSO, RPL26 (P61254) (Pt3R cells [1]; protein decreased): 0.619 | C7/DMSO, RPL35 (P42766) (Pt3R cells [1]; protein decreased): 0.629 | C7/DMSO, RPS6 (P62753) (Pt3R cells [1]; protein decreased): 0.641 | C7/DMSO, RPS10 (P46783) (Pt3R cells [1]; protein decreased): 0.608 | C7/DMSO, S100A13 (Q99584) (Pt3R cells [1]; protein decreased): 0.638 | C7/DMSO, SERPINB6 (P35237) (Pt3R cells [1]; protein decreased): 0.632 | C7/DMSO, SRSF7 (Q16629) (Pt3R cells [1]; protein decreased): 0.605 | C7/DMSO, TAF15 (Q92804) (Pt3R cells [1]; protein decreased): 0.609 | C7/DMSO, TNS3 (Q68CZ2) (Pt3R cells [1]; protein decreased): 0.582 | C7/DMSO, TUBB4B (P68371) (Pt3R cells [1]; protein decreased): 0.564 | C7/DMSO, TXNDC5 (Q8NBS9) (Pt3R cells [1]; protein decreased): 0.635 | C7/DMSO, YWHAG (P61981) (Pt3R cells [1]; protein decreased): 0.447 | C7/DMSO, ACTB (P60709) (Pt3R cells [1]; protein increased): 1.657 | C7/DMSO, ARF3 (P61204) (Pt3R cells [1]; protein increased): 1.944 | C7/DMSO, ATP5IF1 (Q9UII2) (Pt3R cells [1]; protein increased): 1.646 | C7/DMSO, ATP6 V1E1 (P36543) (Pt3R cells [1]; protein increased): 1.599 | C7/DMSO, CLIC1 (O00299) (Pt3R cells [1]; protein increased): 2.598 | C7/DMSO, CTNNB1 (P35222) (Pt3R cells [1]; protein increased): 1.550 | C7/DMSO, EEF1B2 (P24534) (Pt3R cells [1]; protein increased): 1.792 | C7/DMSO, EHD1 (Q9H4M9) (Pt3R cells [1]; protein increased): 1.555 | C7/DMSO, GIPC1 (O14908) (Pt3R cells [1]; protein increased): 1.699 | C7/DMSO, HK1 (P19367) (Pt3R cells [1]; protein increased): 1.921 | C7/DMSO, HSP90AA1 (P07900) (Pt3R cells [1]; protein increased): 1.958 | C7/DMSO, HSPA1A (P0DMV8) (Pt3R cells [1]; protein increased): 2.843 | C7/DMSO, HSPA4 (P34932) (Pt3R cells [1]; protein increased): 1.561 | C7/DMSO, HSPA8 (P11142) (Pt3R cells [1]; protein increased): 2.096 | C7/DMSO, HSPB1 (P04792) (Pt3R cells [1]; protein increased): 1.661 | C7/DMSO, HSPE1 (P61604) (Pt3R cells [1]; protein increased): 1.710 | C7/DMSO, HSPH1 (Q92598) (Pt3R cells [1]; protein increased): 1.642 | C7/DMSO, LRPAP1 (P30533) (Pt3R cells [1]; protein increased): 1.667 | C7/DMSO, NME1 (P15531) (Pt3R cells [1]; protein increased): 3.299 | C7/DMSO, OCIAD2 (Q56VL3) (Pt3R cells [1]; protein increased): 2.150 | C7/DMSO, OLA1 (Q9NTK5) (Pt3R cells [1]; protein increased): 1.745 | C7/DMSO, P4HA2 (O15460) (Pt3R cells [1]; protein increased): 1.588 | C7/DMSO, PSMD3 (O43242) (Pt3R cells [1]; protein increased): 1.801 | C7/DMSO, PSMD14 (O00487) (Pt3R cells [1]; protein increased): 1.579 | C7/DMSO, S100A10 (P60903) (Pt3R cells [1]; protein increased): 1.664 | C7/DMSO, SERPINE1 (P05121) (Pt3R cells [1]; protein increased): 4.203 | C7/DMSO, SERPINH1 (P50454) (Pt3R cells [1]; protein increased): 2.186 | C7/DMSO, TWF1 (Q12792) (Pt3R cells [1]; protein increased): 1.995 | C7/DMSO, ZYX (Q15942) (Pt3R cells [1]; protein increased): 1.903 | ROS level (Pt3 cells): increased | ROS level (Pt3R cells [2]): increased | cell cycle (Pt3R cells [3]): induced cell cycle arrest at the M phase | centromere proteins (CENPs) CENPF, CENPE, CENPA, CENPI gene expression (TMZ-resistant Pt3R cells; Pt3R (Figure 8C)): decreased | RBBP8 and BRCA1 gene expression (TMZ-resistant Pt3R cells; Pt3R (Figure 9A)): suppressed | genes regulating homologous recombination (TOP2A, RAD54B, RAD21, EME1, BRIP1) (TMZ-resistant Pt3R cells; Pt3R (Figure 9H)): suppressed | number of gene expressions decreased (RNA-seq) (TMZ-resistant Pt3R cells; Pt3R, 2 μM, 48 h): 498 | number of gene expressions increased (RNA-seq) (TMZ-resistant Pt3R cells; Pt3R, 2 μM, 48 h): 297 | cell proliferation (TMZ-resistant Pt3R cells; Pt3R, 2 μM, 48 h (Figure 7A)): significantly inhibited cell proliferation | M phase/kinetochore/spindle-related gene expression (TMZ-resistant Pt3R cells; Pt3R, 48 h): decreased | apoptosis/necrosis-related gene expression (TMZ-resistant Pt3R cells; Pt3R, 48 h): increased
